Test: Agilent ZORBAX 300 SB-C18, 150 × 1 mm, 3.5 µm; A: water + 0.01% heptafluorobutyric acid; B: acetonitrile + 0.01% heptafluorobutyric acid; gradient (min/%B) 0/0 100/90
Details: stereoisomer not certain

Structure (SMILES) | LC retention time [min]
CN(C(=O)CCCN1C(=O)c2ccccc2C1=O)C1CC(C)(C)N(C)C(C)(C)C1 | 9.02
O=C(c1n[nH]c(=O)c2ccccc12)N1CCN(C(c2ccccc2)c2ccccc2)CC1 | 11.4
CC(=O)N1c2ccc(N)cc2CC1C (centres undefined) | 7.53
CCOC(=O)c1ccc2[nH]c3c(c2c1)CCCC3C(=O)OCC (centres undefined) | 16.2
CC(C)(C)NCC(O)c1ccc(O)c(CO)c1 (centres undefined) | 7.63
CN1CC(C(=O)O)CC1=O (centres undefined) | 3.04
CC(=O)C1CCC2C3CC(C)C4=CC(=O)CCC4(C)C3C(O)CC12C (centres undefined) | 14.8
COc1ccc(N2C(=O)CC(C3CCCO3)C2=O)cc1 (centres undefined) | 10.7
CC(O)CCN (centres undefined) | 3.82
CCCCCCCCNCCCCCCCC | 14.8
CC1CCCN1 (centres undefined) | 5.96
CC(C)(C)NCC(O)COc1cccc2c1CCC(=O)N2 (centres undefined) | 8.4
c1ccc(N2CCNCC2)cc1 | 8
COC(=O)CCC(=O)Nc1ccc(C)cc1C | 11.7
Cc1cc(C)c(C=CC(=O)c2cccs2)c(C)c1 | 18.2
NC(=O)c1cn(CC(=O)O)c(=O)[nH]c1=O | 1.6
COc1cc(C(=O)Nc2ccc(N3CCCC3=O)cc2)cc(OC)c1OC | 10.8
CC1(C)CC(NCC(=O)NC2CC(C)(C)NC(C)(C)C2)CC(C)(C)N1 | 7.71
CSc1nnc(C)c(C)n1 | 8.89
Cc1c[n+](C)c(C)cc1-c1ccccc1 | 9.13
NCCN1CCNCC1 | 6.42

Structure (SMILES) | LC retention time [min]
CNCCc1ccccc1 | 7.97
O=C1CCCC(O)=C1C1(O)C(=O)c2ccccc2C1=O | 8.21
c1coc(CN2CCNCC2)c1 | 7.3
CCCN1CCCC(C(N)=O)C1 (centres undefined) | 6.49
Cc1cccc(NC(=O)C(Cc2c[nH]c3ccccc23)NC(=O)C(c2ccccc2)c2ccccc2)c1C (centres undefined) | 16.7
CN(C)CCCNCCCN | 7.35
OCC1CC(O)CN1 (centres undefined) | 2.85
CNC1CCCCC1NC (centres undefined) | 7.14
CN(C)CCN(C)CCN(C)C | 6.9
CCN(CC)CCOC(=O)C(c1ccccc1)C1CCCCC1 (centres undefined) | 13
CCN(CC)CCN(CC)CC | 7.19
CN(C)c1nc(N(C)C)nc(N(C)C)n1 | 9.15
C[n+]1cccc(C(=O)O)c1 | 1.49
Cc1ccc(N2C(=O)NC(=O)C(=Cc3cc(C)n(-c4ccccc4)c3C)C2=O)cc1 | 15
CCCCCNC=O | 8.68
Cc1cc(=O)n(C)c(=O)n1CCCN1CCCC1 | 7.09
Oc1ccc2c(c1)C13CCCCC1(O)C(C2O)N(CC1CCC1)CC3 (centres undefined) | 8.68
NNC(=O)CCCO | 2.37
CC(N)CCCC(C)(C)O (centres undefined) | 7.64
CC1(C)CC(NC(=O)NC2CCCCC2)CC(C)(C)N1 | 8.78
Cc1cc(=O)n(-c2ccc(C(=O)O)cc2)[nH]1 | 8.05

Second part, the compound after the results:

LC retention time [min] | Structure (SMILES)
16.3 | CC(=NNC(=O)c1cc2ccccc2cc1O)c1ccc(-c2ccccc2)cc1
10.3 | Cc1cccc(CN2CCN(CN3C(=O)c4ccccc4C3=O)CC2)c1
7.93 | CCn1cc(-c2ccn[nH]2)cn1
15.7 | O=C1CC(Nc2ccc3ccccc3c2)C(=O)N1c1cccc2ccccc12 (centres undefined)
9.35 | O=C(O)CCC(=O)Nc1ccc(Cc2ccc(NC(=O)CCC(=O)O)cc2)cc1
16.1 | COc1ccc(C=CC(=O)C=Cc2ccc(OC)cc2)cc1
12.3 | S=C(Nc1ccccc1)N1CCCCC1
9.56 | CN1COc2ccc3ccccc3c2C1
9.05 | O=C1CCN(c2ccccc2)N1
7.25 | O=S(=O)(O)c1ccc(Nc2ccccc2)cc1
8.38 | CCNc1cccc(C)c1
16.3 | CC(C)c1cc[nH]c1-c1ccccc1
11.9 | c1ccc(Nc2nc(-c3ccccc3)nc3ccccc23)cc1
9.44 | CC1(C)CC(NC(=O)C(=O)NCCc2ccccc2)CC(C)(C)N1
10.4 | Cn1c(=O)c2ccc(C(=O)Nc3ccc4ccccc4n3)cc2c(=O)n1C
12.2 | O=c1oc2ccccc2c2nc(-c3ccncc3)ncc12
12.3 | Cc1ccc(C(=O)NCc2ccco2)c(C)c1
6.56 | c1cncc(-c2cn[nH]c2)c1
12.4 | CCn1cc(CCC(=O)O)c2ccccc21
8.6 | C=Cc1ccc(CN(C)C)cc1
13.7 | COc1ccc2c(=O)cc(-c3ccccc3)oc2c1OC
14.4 | O=C(C(=O)c1cccs1)c1ccccc1
11.2 | Nc1ccc2nc(-c3ccccc3)oc(=O)c2c1
11.8 | CN(C)CCC=C1c2ccccc2CCc2ccccc21
11.1 | CC(C)(C)c1ccc(C(=O)N2CCN(Cc3ccccc3)CC2)cc1
20.1 | c1ccc(-n2c3c(c4ccccc42)CCC3)cc1

LC retention time [min] | Structure (SMILES)
11.1 | CC1CCCCN1C(=O)c1ccccc1N (centres undefined)
10.2 | CC1CC(O)(CC(O)(c2ccccc2)c2ccccc2)C(C)CN1C (centres undefined)
15.3 | COc1ccccc1C=NNC(=O)c1ccc(C(C)(C)C)cc1
8.51 | O=C1Cc2ccccc2N1
10 | O=C1CCCN1c1ccccc1
12.6 | Nc1cccc2c1C(=O)c1cccc(N)c1C2=O
10.7 | CCOC(=O)c1cnc2ccccc2n1
13.4 | Cc1ccc(-c2ccc3ccccc3n2)cc1
14.5 | Nc1cccc2cc(-c3ccccc3)oc12
10.5 | c1ccc(-n2ncc(-c3nn[nH]n3)n2)cc1
5.35 | c1cncc(-c2nn[nH]n2)c1
15.5 | c1ccc(CCn2cccc2)cc1
17.1 | Cc1ccc(NC(=O)COc2ccc(-c3ccccc3)cc2)cc1
13.8 | Cc1ccccc1NCC(=O)Nc1c(C)cccc1C
12.1 | COc1cccc2c1NC(CCc1ccccc1N)CC2 (centres undefined)
10.2 | O=C(CCN1C(=O)c2ccccc2C1=O)Nc1cccc(C(=O)O)c1
14.1 | Oc1ccc2cccc(-n3cccc3)c2c1
8.82 | CN(C)Cc1c(N)cc2ccccc2c1-c1ccccc1
7.92 | CN(CCO)C(=O)Nc1ccccc1
5.5 | Cc1cc(C(=O)O)nc2ccccc12
11.8 | CN(Cc1ccccc1)C(=O)c1ccco1
13.3 | O=C(CCc1ccccc1)NN=Cc1ccccc1O
9.55 | C=CCNc1ccccc1
7.11 | c1cncc(CNCc2cccnc2)c1
12.9 | CCc1ccc2c(c1)c(C=O)c(C)n2C
7.77 | COc1cccc2ccc(C)nc12

— the RepoRT retention time repository
